Each compound was assayed against human RIP1 kinase domain (2-375) (Homo sapiens (Human), UniProt Q13546) (assay: biochemical). Details: Table 1; apparent Ki (Morrison tight-binding fit); 50 nM RIP1 kinase domain, 50 uM ATP, 2 hours incubation; read-out: RIP1 Ki.
Format: biochemical
Outline: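 50 nM purified kinase domain from baculovirus-infected insect cells, incubated 2 h with compound in 50 mM Hepes pH 7.5, 30 mM MgCl2, 1 mM DTT, 50 uM ATP, 0.002% Brij-35, 0.5% DMSO. ADP formation read by Transcreener FP at 633 nm excitation. Ki^app fitted with the Morrison tight-binding equation.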

human RIP1 kinase domain (2-375), sequence (Q13546 2-375): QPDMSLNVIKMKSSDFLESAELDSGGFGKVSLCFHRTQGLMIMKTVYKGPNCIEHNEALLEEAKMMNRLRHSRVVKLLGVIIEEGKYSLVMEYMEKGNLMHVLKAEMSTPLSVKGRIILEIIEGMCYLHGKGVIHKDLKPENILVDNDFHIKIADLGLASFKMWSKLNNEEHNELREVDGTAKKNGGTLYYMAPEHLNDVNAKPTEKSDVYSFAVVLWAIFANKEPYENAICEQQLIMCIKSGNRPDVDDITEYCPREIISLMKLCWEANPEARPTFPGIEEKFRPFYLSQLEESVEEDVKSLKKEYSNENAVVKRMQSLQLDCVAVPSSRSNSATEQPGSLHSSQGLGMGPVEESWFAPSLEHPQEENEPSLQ

Question: For CN1C(=O)[C@@H](NC(=O)c2n[nH]c3c2CCC3)COc2ccccc21 [Example 48, (S)-N-(5-methyl-4-oxo-2,3,4,5-tetrahydrobenzo[b][1,4]oxazepin-3-yl)-1,4,5,6-tetrahydrocyclopenta[c]pyra7.ole-3-carboxamide], which Ki is on record?
Answer: Its Ki is 8600 nM.

Same assay, conditions: Table 5; apparent Ki (Morrison tight-binding fit); 50 nM RIP1 kinase domain, 50 uM ATP, 2 hours incubation; read-out: Ki

Question: For CN1C(=O)[C@@H](NC(=O)c2nc3n(n2)[C@H](c2ccccc2)CCC3)COc2ccccc21 [Example 735, (S)—N—((S)-5-methyl-4-oxo-2,3,4,5-tetrahydrobenzo[b][1,4]oxazepin-3-yl)-5-phenyl-5,6,7,8-tetrahydro-[1,2,4]triazolo[1,5-a]pyridine-2-carboxamide], which Ki is on record?
Answer: The Ki was 13 nM.

Question: Which Ki does the source give for CN1C(=O)C(NC(=O)c2ncn(Cc3ccccc3)n2)CCn2nc(-c3cnn(C)c3)cc21 (racemic) [Example 778, 1-benzyl-N-(4-methyl-2-(1-methyl-1H-pyrazol-4-yl)-5-oxo-5,6,7,8-tetrahydro-4H-pyrazolo[1,5-a][1,3]diazepin-6-yl)-1H-1,2,4-triazole-3-carboxamide] here?
Answer: Its Ki is 171 nM.

Question: How did the Ki turn out when CN1C(=O)[C@@H](NC(=O)c2ncn(Cc3ccccc3)n2)CCn2nc(CO)cc21 (single isomer, unassigned) [Example 732] was run?
Answer: The Ki was 61 nM.

Question: For CN1C(=O)[C@@H](NC(=O)c2nc3n(n2)CCN[C@@H]3c2ccccc2)COc2ccccc21 (single isomer, unassigned) [Example 729], which Ki is on record?
Answer: Its Ki is 74 nM.

Same assay, conditions: human RIP1 kinase domain (2-375), 50 uM ATP, 2 hours incubation, Transcreener ADP assay; read-out: RIP1 Ki

Question: How did the Ki turn out when CN1C(=O)C(NC(=O)c2ncn(Cc3ccccc3)n2)CCn2cncc21 (centres unmarked) [Example 204, 1-benzyl-N-(1-methyl-2-oxo-2,3,4,5-tetrahydro-1H-imidazo[1,5-a][1,3]diazepin-3-yl)-1H-1,2,4-triazole-3-carboxamide] was run?
Answer: The Ki was 84.3 nM.

Question: With CN1C(=O)C(NC(=O)c2cn(Cc3ccccc3)nn2)CCn2nc(-c3ccccc3)cc21 (centres unmarked) [Example 216, 1-benzyl-N-(4-methyl-5-oxo-2-phenyl-5,6,7,8-tetrahydro-4H-pyrazolo[1,5-a][1,3]diazepin-6-yl)-1H-1,2,3-triazole-4-carboxamide] as the compound, how does the Ki read?
Answer: Its Ki is 97.2 nM.

Question: CN1C(=O)C(NC(=O)c2nnc(Cc3ccccc3)[nH]2)CCn2c1nc1ccccc12 (centres unmarked) [Example 109, 5-benzyl-N-(1-methyl-2-oxo-2,3,4,5-tetrahydro-1H-benzo[4,5]imidazo[1,2-a][1,3]diazepin-3-yl)-4H-1,2,4-triazole-3-carboxamide] was tested. Which Ki did it give?
Answer: The Ki was 124 nM.

Question: For CCOC(=O)[C@H]1[C@H]2CC[C@H](NC(=O)c3ncn(Cc4ccccc4)n3)C(=O)N(C)[C@H]21 (single isomer, unassigned) [Example 132], which Ki is on record?
Answer: Its Ki is 5000 nM.

Question: CN1C(=O)[C@@H](NC(=O)c2ncn(Cc3ccc(F)cc3F)n2)CCn2nc(C3CC3)cc21 [Example 224, (S)—N-(2-cyclopropyl-4-methyl-5-oxo-5,6,7,8-tetrahydro-4H-pyrazolo[1,5-a][1,3]diazepin-6-yl)-1-(2,4-difluorobenzyl)-1H-1,2,4-triazole-3-carboxamide] was tested. Which Ki did it give?
Answer: The Ki was 21.9 nM.

Question: With CN1C(=O)[C@@H](NC(=O)c2nnc3n2CC(C(F)(F)C(F)(F)F)CC3)COc2ccccc21 (stereo partly drawn) [Example 116, N—((S)-5-methyl-4-oxo-2,3,4,5-tetrahydrobenzo[b][1,4]oxazepin-3-yl)-6-(perfluoroethyl)-5,6,7,8-tetrahydro-[1,2,4]triazolo[4,3-a]pyridine-3-carboxamide] as the compound, how does the Ki read?
Answer: The Ki was 371 nM.

Same assay, conditions: human RIP1 kinase domain (2-375), Transcreener ADP assay, 50 uM ATP, 2 hours incubation; read-out: RIP1 Ki

Question: CC[C@@]1(C)OCc2cnc(C(=O)NC3CCn4ccnc4N(C)C3=O)cc21 (stereo partly drawn) [Example 233, (1R)-1-ethyl-1-methyl-N-(9-methyl-8-oxo-6,7,8,9-tetrahydro-5H-imidazo [1,2-a][1,3]diazepin-7-yl)-1,3-dihydrofuro[3,4-c]pyridine-6-carboxamide] was tested. Which Ki did it give?
Answer: The Ki was 2000 nM.

Question: For CC[C@@]1(C)OCc2cnc(C(=O)N[C@@H]3CCn4nc([C@H]5CC5(F)F)cc4N(C)C3=O)cc21 [Example 324, (R)—N—((R)-2-((R)-2,2-difluorocyclopropyl)-4-methyl-5-oxo-5,6,7,8-tetrahydro-4H-pyrazolo[1,5-a][1,3]diazepin-6-yl)-1-ethyl-1-methyl-1,3-dihydrofuro[3,4-c]pyridine-6-carboxamide], which Ki is on record?
Answer: Its Ki is 1290 nM.

Question: With CC[C@@]1(C)OCc2cnc(C(=O)N[C@H]3CCn4nc(C5CC5)cc4N(C)C3=O)cc21 [Example 245, (R)—N—((S)-2-cyclopropyl-4-methyl-5-oxo-5,6,7,8-tetrahydro-4H-pyrazolo[1,5-a][1,3]diazepin-6-yl)-1-ethyl-1-methyl-1,3-dihydrofuro[3,4-c]pyridine-6-carboxamide] as the compound, how does the Ki read?
Answer: The Ki was 782 nM.

Question: Which Ki does the source give for CC[C@]1(C)OCc2cc(C(=O)NC3CCn4nc(-c5ccccc5)cc4N(C)C3=O)ncc21 (stereo partly drawn) [Example 265, (3S)-3-ethyl-3-methyl-N-(4-methyl-5-oxo-2-phenyl-5,6,7,8-tetrahydro-4H-pyrazolo[1,5-a][1,3]diazepin-6-yl)-1,3-dihydrofuro[3,4-c]pyridine-6-carboxamide] here?
Answer: The Ki was 4900 nM.

Question: How did the Ki turn out when CN1C(=O)[C@@H](NC(=O)c2ncn(Cc3ccc(F)c(F)c3)n2)CCn2nc([C@@H]3CC3(F)F)cc21 [Example 321, 1-(3,4-difluorobenzyl)-N—((S)-2-((S)-2,2-difluorocyclopropyl)-4-methyl-5-oxo-5,6,7,8-tetrahydro-4H-pyrazolo[1,5-a][1,3]diazepin-6-yl)-1H-1,2,4-triazole-3-carboxamide] was run?
Answer: Its Ki is 67 nM.

Same assay, conditions: read-out: RIP1 Ki

Question: How did the Ki turn out when C[C@H]1CCc2[nH]nc(C(=O)N[C@H]3COc4ccccc4N(C)C3=O)c2C1 [Example 55, (S)-5-methyl-N-((S)-5-methyl-4-oxo-2,3,4,5-tetrahydrobenzo[b][1,4]oxazepin-3-yl)-4,5,6,7-tetrahydro-1H-indazole-3-carboxamide] was run?
Answer: The Ki was 103 nM.

Same assay, conditions: tight-binding apparent inhibition constant; human RIP1 kinase domain (2-375) 50 nM, 50 uM ATP, 2 hours; read-out: Ki

Question: How did the Ki turn out when Cc1ncn2c1N(C)C(=O)[C@H](NC(=O)c1ncn(Cc3cc(F)ccc3F)n1)CC2 [Example 504, 1-[(2,5-difluorophenyl)methyl]-N-(3R)-1,9-dimethyl-2-oxo-4,5-dihydro-3H-imidazo[1,5-a][1,3]diazepin-3-yl-1,2,4-triazole-3-carboxamide] was run?
Answer: The Ki was 50 nM.

Question: Which Ki does the source give for CN1C(=O)[C@@H](NC(=O)c2nc3cccc(-c4ccccc4)c3s2)COc2ccccc21 [Example 391, (S)—N-(5-methyl-4-oxo-2,3,4,5-tetrahydrobenzo[b][1,4]oxazepin-3-yl)-7-phenylbenzo[d]thiazole-2-carboxamide] here?
Answer: The Ki was 65.8 nM.

Question: Which Ki does the source give for CN1C(=O)[C@@H](NC(=O)c2nc3n(n2)[C@H](C(F)(F)F)CC3)COc2ccccc21 [Example 350, (5S)—N-[(3S)-5-methyl-4-oxo-2,3-dihydro-1,5-benzoxazepin-3-yl]-5-(trifluoromethyl)-6,7-dihydro-5H-pyrrolo[1,2-b][1,2,4]triazole-2-carboxamide] here?
Answer: The Ki was 19.4 nM.

Question: Which Ki does the source give for CN1C(=O)[C@@H](NC(=O)c2nc3c(-c4ccccc4)nccn3n2)COc2ccccc21 [Example 442, (S)—N-(5-methyl-4-oxo-2,3,4,5-tetrahydrobenzo[b][1,4]oxazepin-3-yl)-8-phenyl-[1,2,4]triazolo[1,5-a]pyrazine-2-carboxamide] here?
Answer: Its Ki is 7.83 nM.

Question: CN1C(=O)[C@@H](NC(=O)c2nc3n(n2)[C@@H](c2c(F)cccc2F)CCC3)CCn2nccc21 (racemic) [Example 401, (R)-5-(2,6-difluorophenyl)-N—((S)-4-methyl-5-oxo-5,6,7,8-tetrahydro-4H-pyrazolo[1,5-a][1,3]diazepin-6-yl)-5,6,7,8-tetrahydro-[1,2,4]triazolo[1,5-a]pyridine-2-carboxamide] was tested. Which Ki did it give?
Answer: Its Ki is 87.9 nM.

Question: How did the Ki turn out when O=C(N[C@H]1CCc2cc(F)cc(F)c2NC1=O)c1nc2n(n1)[C@@H](C(F)(F)F)CCC2 (single isomer, unassigned) [Example 429] was run?
Answer: The Ki was 213 nM.

Question: How did the Ki turn out when CN1C(=O)[C@@H](NC(=O)c2ncn(Cc3c(F)cccc3F)n2)CCn2nccc21 [Example 343, 1-[(2,6-difluorophenyl)methyl]-N-[(6S)-4-methyl-5-oxo-7,8-dihydro-6H-pyrazolo[1,5-a][1,3]diazepin-6-yl]-1,2,4-triazole-3-carboxamide] was run?
Answer: Its Ki is 9.73 nM.

Question: Which Ki does the source give for O=C(N[C@H]1COc2cc(F)cc(F)c2NC1=O)c1nc2cccc(C3CCOCC3)n2n1 [Example 422, (S)—N-(6,8-difluoro-4-oxo-2,3,4,5-tetrahydrobenzo[b][1,4]oxazepin-3-yl)-5-(tetrahydro-2H-pyran-4-yl)-[1,2,4]triazolo[1,5-a]pyridine-2-carboxamide] here?
Answer: Its Ki is 27.4 nM.

Question: For CN1C(=O)[C@@H](NC(=O)c2nc3cccc(-c4ccccc4F)n3n2)CCn2nccc21 [Example 386, (S)-5-(2-fluorophenyl)-N-(4-methyl-5-oxo-5,6,7,8-tetrahydro-4H-pyrazolo[1,5-a][1,3]diazepin-6-yl)-[1,2,4]triazolo[1,5-a]pyridine-2-carboxamide], which Ki is on record?
Answer: The Ki was 14.8 nM.

Question: COC1CN(Cc2cc3n(n2)CCC(NC(=O)c2ncn(Cc4ccccc4)n2)C(=O)N3C)C1 (single isomer, unassigned) [Example 451, 1-benzyl-N-(2-((3-methoxyazetidin-1-yl)methyl)-4-methyl-5-oxo-5,6,7,8-tetrahydro-4H-pyrazolo[1,5-a][1,3]diazepin-6-yl)-1H-1,2,4-triazole-3-carboxamide] was tested. Which Ki did it give?
Answer: The Ki was 444 nM.

Question: Which Ki does the source give for Cc1cc2n(n1)CC[C@H](NC(=O)c1ncn(CC3CCCO3)n1)C(=O)N2C (stereo partly drawn) [Example 474, N-(6S)-2,4-dimethyl-5-oxo-7,8-dihydro-6H-pyrazolo[1,5-a][1,3]diazepin-6-yl-1-(tetrahydrofuran-2-ylmethyl)-1,2,4-triazole-3-carboxamide] here?
Answer: Its Ki is 1300 nM.

Question: With CCC1CCc2nc(C(=O)N[C@H]3COc4cc(C)cc(F)c4NC3=O)nn21 (stereo partly drawn) [Example 349, 5-ethyl-N-[(3S)-6-fluoro-8-methyl-4-oxo-3,5-dihydro-2H-1,5-benzoxazepin-3-yl]-6,7-dihydro-5H-pyrrolo[1,2-b][1,2,4]triazole-2-carboxamide] as the compound, how does the Ki read?
Answer: Its Ki is 33.5 nM.

Source: patent US10988459B2 (priority 2015, dated 2021)
